# Reference: patent US20120129928A1, “Chlorine-Free Liquid Microbicide Treatment” (University of Georgia Research Foundation, Inc., priority 2010, published 2012)
# Like-named read-outs stand apart in the source and are kept apart here.
# Experiments:
# L. monocytogenes = format: cell-based, Listeria monocytogenes; settings: 21° C.
# S. enteritidis = assay: Reduction of S. enteritidis in water treated with organic acids and SDS; format: cell-based, Salmonella enteritidis; settings: water; for S. enteritidis counts: 21° C.; for Salmonella reduction: contact for 30 minutes
# various yeast species = assay: Effect of levulinic acids plus SDS at 21° C. on various yeast species; format: cell-based; settings: for Yeast counts at min: 1: 1 min; for Yeast counts at min: 2: 2 min; for Yeast counts at min: 5: 5 min; for Yeast counts at min: 10: 10 min; for Yeast counts at min: 20: 20 min; for Yeast counts at min: 30: 30 min; for Yeast counts at min: 60: 60 min
# S. typhimurium DT 104 = format: cell-based, Salmonella typhimurium DT104; settings: water, 21° C.
# [1] = tested on: spores of Bacillus anthracis Sterne; format: cell-based, Bacillus anthracis Sterne (34F2)
# [2] = 0 min, listed as 0.5% levulinic acid
# [3] = 0 min, listed as 1.0% levulinic acid
# [4] = 0 min, listed as 2.0% levulinic acid
# [5] = 2 min, listed as 0.5% levulinic acid
# [6] = 2 min, listed as 1.0% levulinic acid
# [7] = 2 min, listed as 2.0% levulinic acid
# [8] = 5 min, listed as 0.5% levulinic acid
# [9] = 5 min, listed as 1.0% levulinic acid
# [10] = 5 min, listed as 2.0% levulinic acid
# [11] = 10 min, listed as 0.5% levulinic acid
# [12] = 10 min, listed as 1.0% levulinic acid
# [13] = 10 min, listed as 2.0% levulinic acid
# [14] = 20 min, listed as 0.5% levulinic acid
# [15] = 20 min, listed as 1.0% levulinic acid
# [16] = 20 min, listed as 2.0% levulinic acid
# [17] = 30 min, listed as 0.5% levulinic acid
# [18] = 30 min, listed as 1.0% levulinic acid
# [19] = 30 min, listed as 2.0% levulinic acid
smiles,measurement,setting,value
CC(=O)CCC(=O)O [levulinic acid],L. monocytogenes counts,L. monocytogenes; 0 min,6.9 ± 0.1 log CFU/ml
same,L. monocytogenes counts,L. monocytogenes; [2],6.7 ± 0.2 log CFU/ml
same,L. monocytogenes counts,L. monocytogenes; [3],6.8 ± 0.3 log CFU/ml
same,L. monocytogenes counts,L. monocytogenes; [4],6.8 ± 0.3 log CFU/ml
same,L. monocytogenes counts,L. monocytogenes; 2 min,6.9 ± 0.2 log CFU/ml
same,L. monocytogenes counts,L. monocytogenes; [5],6.7 ± 0.1 log CFU/ml
same,L. monocytogenes counts,L. monocytogenes; [6],6.7 ± 0.2 log CFU/ml
same,L. monocytogenes counts,L. monocytogenes; [7],6.8 ± 0.2 log CFU/ml
same,L. monocytogenes counts,L. monocytogenes; 5 min,6.9 ± 0.3 log CFU/ml
same,L. monocytogenes counts,L. monocytogenes; [8],6.8 ± 0.3 log CFU/ml
same,L. monocytogenes counts,L. monocytogenes; [9],6.6 ± 0.3 log CFU/ml
same,L. monocytogenes counts,L. monocytogenes; [10],6.9 ± 0.2 log CFU/ml
same,L. monocytogenes counts,L. monocytogenes; 10 min,6.9 ± 0.1 log CFU/ml
same,L. monocytogenes counts,L. monocytogenes; [11],6.9 ± 0.2 log CFU/ml
same,L. monocytogenes counts,L. monocytogenes; [12],6.6 ± 0.3 log CFU/ml
same,L. monocytogenes counts,L. monocytogenes; [13],6.7 ± 0.2 log CFU/ml
same,L. monocytogenes counts,L. monocytogenes; 20 min,6.9 ± 0.3 log CFU/ml
same,L. monocytogenes counts,L. monocytogenes; [14],6.7 ± 0.2 log CFU/ml
same,L. monocytogenes counts,L. monocytogenes; [15],6.6 ± 0.0 log CFU/ml
same,L. monocytogenes counts,L. monocytogenes; [16],6.9 ± 0.2 log CFU/ml
same,L. monocytogenes counts,L. monocytogenes; 30 min,6.8 ± 0.3 log CFU/ml
same,L. monocytogenes counts,L. monocytogenes; [17],6.8 ± 0.2 log CFU/ml
same,L. monocytogenes counts,L. monocytogenes; [18],6.6 ± 0.3 log CFU/ml
same,L. monocytogenes counts,L. monocytogenes; [19],6.8 ± 0.2 log CFU/ml
same,S. enteritidis counts,"S. enteritidis; 0 min, listed as 0.1% levulinic acid",7.1 log CFU/ml
same,S. enteritidis counts,S. enteritidis; [2],7.1 log CFU/ml
same,S. enteritidis counts,S. enteritidis; [3],6.9 log CFU/ml
same,S. enteritidis counts,S. enteritidis; [4],6.7 log CFU/ml
same,S. enteritidis counts,"S. enteritidis; 0 min, listed as 3.0% levulinic acid",6.6 log CFU/ml
same,S. enteritidis counts,"S. enteritidis; 2 min, listed as 0.1% levulinic acid",7.1 log CFU/ml
same,S. enteritidis counts,S. enteritidis; [5],6.8 log CFU/ml
same,S. enteritidis counts,S. enteritidis; [6],6.7 log CFU/ml
same,S. enteritidis counts,S. enteritidis; [7],6.7 log CFU/ml
same,S. enteritidis counts,"S. enteritidis; 2 min, listed as 3.0% levulinic acid",6.8 log CFU/ml
same,S. enteritidis counts,"S. enteritidis; 5 min, listed as 0.1% levulinic acid",6.9 log CFU/ml
same,S. enteritidis counts,S. enteritidis; [8],6.9 log CFU/ml
same,S. enteritidis counts,S. enteritidis; [9],6.8 log CFU/ml
same,S. enteritidis counts,S. enteritidis; [10],6.7 log CFU/ml
same,S. enteritidis counts,"S. enteritidis; 5 min, listed as 3.0% levulinic acid",6.5 log CFU/ml
same,S. enteritidis counts,"S. enteritidis; 10 min, listed as 0.1% levulinic acid",7.0 log CFU/ml
same,S. enteritidis counts,S. enteritidis; [11],6.9 log CFU/ml
same,S. enteritidis counts,S. enteritidis; [12],6.9 log CFU/ml
same,S. enteritidis counts,S. enteritidis; [13],6.8 log CFU/ml
same,S. enteritidis counts,"S. enteritidis; 10 min, listed as 3.0% levulinic acid",6.2 log CFU/ml
same,S. enteritidis counts,"S. enteritidis; 20 min, listed as 0.1% levulinic acid",6.9 log CFU/ml
same,S. enteritidis counts,S. enteritidis; [14],6.6 log CFU/ml
same,S. enteritidis counts,S. enteritidis; [15],6.9 log CFU/ml
same,S. enteritidis counts,S. enteritidis; [16],6.5 log CFU/ml
same,S. enteritidis counts,"S. enteritidis; 20 min, listed as 3.0% levulinic acid",5.1 log CFU/ml
same,S. enteritidis counts,"S. enteritidis; 30 min, listed as 0.1% levulinic acid",6.9 log CFU/ml
same,S. enteritidis counts,S. enteritidis; [17],6.7 log CFU/ml
same,S. enteritidis counts,S. enteritidis; [18],6.7 log CFU/ml
same,S. enteritidis counts,S. enteritidis; [19],6.0 log CFU/ml
same,S. enteritidis counts,"S. enteritidis; 30 min, listed as 3.0% levulinic acid",3.8 log CFU/ml
same,Salmonella reduction,S. enteritidis; listed as 0.1 to 2.0% by weight levulinic acid,~1 log CFU/ml
same,Salmonella reduction,S. enteritidis; listed as 1% by weight levulinic acid,≤ 1 log CFU/ml
same,Salmonella reduction,S. enteritidis; listed as 3% levulinic acid,3.4 log CFU/ml
same,Salmonella reduction,S. enteritidis; listed as 3.0% levulinic acid,3.4 log CFU/ml
same,Yeast counts at min: 1,various yeast species; Debaryomyces hansenii,4.8 log CFU/ml
same,Yeast counts at min: 2,various yeast species; Debaryomyces hansenii,4.9 log CFU/ml
same,Yeast counts at min: 5,various yeast species; Debaryomyces hansenii,4.6 log CFU/ml
same,Yeast counts at min: 10,various yeast species; Debaryomyces hansenii,4.4 log CFU/ml
same,Yeast counts at min: 20,various yeast species; Debaryomyces hansenii,4.7 log CFU/ml
same,Yeast counts at min: 30,various yeast species; Debaryomyces hansenii,3.0 log CFU/ml
same,Yeast counts at min: 60,various yeast species; Debaryomyces hansenii,1.3 log CFU/ml
same,Yeast counts at min: 1,various yeast species; Geotrichum candidum,4.4 log CFU/ml
same,Yeast counts at min: 2,various yeast species; Geotrichum candidum,4.4 log CFU/ml
same,Yeast counts at min: 5,various yeast species; Geotrichum candidum,4.3 log CFU/ml
same,Yeast counts at min: 10,various yeast species; Geotrichum candidum,4.1 log CFU/ml
same,Yeast counts at min: 20,various yeast species; Geotrichum candidum,3.8 log CFU/ml
same,Yeast counts at min: 30,various yeast species; Geotrichum candidum,3.4 log CFU/ml
same,Yeast counts at min: 60,various yeast species; Geotrichum candidum,2.0 log CFU/ml
same,Yeast counts at min: 1,various yeast species; Saccharomyces cerevisiae,5.3 log CFU/ml
same,Yeast counts at min: 2,various yeast species; Saccharomyces cerevisiae,5.5 log CFU/ml
same,Yeast counts at min: 5,various yeast species; Saccharomyces cerevisiae,5.4 log CFU/ml
same,Yeast counts at min: 10,various yeast species; Saccharomyces cerevisiae,5.3 log CFU/ml
same,Yeast counts at min: 20,various yeast species; Saccharomyces cerevisiae,5.3 log CFU/ml
same,Yeast counts at min: 30,various yeast species; Saccharomyces cerevisiae,5.5 log CFU/ml
same,Yeast counts at min: 60,various yeast species; Saccharomyces cerevisiae,5.0 log CFU/ml
same,S. typhimurium DT 104 counts,S. typhimurium DT 104; 0 min,6.8 log CFU/ml
same,S. typhimurium DT 104 counts,S. typhimurium DT 104; 1 min,6.7 log CFU/ml
same,S. typhimurium DT 104 counts,S. typhimurium DT 104; 2 min,6.6 log CFU/ml
same,S. typhimurium DT 104 counts,S. typhimurium DT 104; 5 min,6.5 log CFU/ml
same,S. typhimurium DT 104 counts,S. typhimurium DT 104; 10 min,6.7 log CFU/ml
same,S. typhimurium DT 104 counts,S. typhimurium DT 104; 20 min,6.6 log CFU/ml
same,S. typhimurium DT 104 counts,S. typhimurium DT 104; 30 min,6.4 log CFU/ml
same,S. typhimurium DT 104 counts,S. typhimurium DT 104; 60 min,5.9 log CFU/ml
same,CFU % recovery (as compared to control flask F),"[1]; Experiment A3, 10 min",81%
same,CFU % recovery (as compared to control flask F),"[1]; Experiment A3, 45 min",55%
same,CFU % recovery (as compared to control flask F),"[1]; Experiment A3, 90 min",64%
same,CFU % recovery (as compared to control flask F),"[1]; Experiment A4 absent heat, RT, 0 min",89%
same,CFU % recovery (as compared to control flask F),"[1]; Experiment A4 absent heat, RT, 1 h",54%
same,CFU % recovery (as compared to control flask F),"[1]; Experiment A4 absent heat, RT, 2 h",27%
same,CFU % recovery (as compared to control flask F),"[1]; Experiment A4 absent heat, RT, 3 h",30%
same,CFU % recovery (as compared to control flask F),"[1]; Experiment A4 absent heat, RT, 4 h",15%
same,CFU % recovery (as compared to control flask F),"[1]; Experiment A4 with heat, 65° C., 0 min",70%
same,CFU % recovery (as compared to control flask F),"[1]; Experiment A4 with heat, 65° C., 1 h",78%
same,CFU % recovery (as compared to control flask F),"[1]; Experiment A4 with heat, 65° C., 2 h",45%
same,CFU % recovery (as compared to control flask F),"[1]; Experiment A4 with heat, 65° C., 3 h",33%
same,CFU % recovery (as compared to control flask F),"[1]; Experiment A4 with heat, 65° C., 4 h",46%
same,CFU % recovery (as compared to control flask F),"[1]; Experiment A5 absent heat, RT, 1 h",80%
same,CFU % recovery (as compared to control flask F),"[1]; Experiment A5 absent heat, RT, 2 h",46%
same,CFU % recovery (as compared to control flask F),"[1]; Experiment A5 absent heat, RT, 3 h",67%
same,CFU % recovery (as compared to control flask F),"[1]; Experiment A5 absent heat, RT, 4 h",37%
same,CFU % recovery (as compared to control flask F),"[1]; Experiment A5 with heat, 65° C., 0 min",75%
same,CFU % recovery (as compared to control flask F),"[1]; Experiment A5 with heat, 65° C., 1 h",58%
same,CFU % recovery (as compared to control flask F),"[1]; Experiment A5 with heat, 65° C., 2 h",34%
same,CFU % recovery (as compared to control flask F),"[1]; Experiment A5 with heat, 65° C., 3 h",34%
same,CFU % recovery (as compared to control flask F),"[1]; Experiment A5 with heat, 65° C., 4 h",14%
